33 compounds from patent US8586755B2, “Substituted nicotinamides as KCNQ2/3 modulators” (Grünenthal GmbH, priority 2009, dated 2013) can be followed below.

The assay concerns the target T1, KCNQ2/3 channels (Homo sapiens, UniProt O43525+O43526).
T1 construct: expressed in transfected cells
Briefly: Fluorescence assay using a voltage sensitive dye (fluorimetry). Format: cell-based. As to conditions: CHO-K1 cells expressing KCNQ2/3 channels; for EC50: agonistic activity; for Emax / Fluorimetry % efficacy (retigabine 50 μM = 100%): retigabine 50 μM = 100%; for Emax: read-out: Fluorimetry % efficacy (retigabine 50 μM = 100%). Summed up: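 CHO-K1 cells expressing human KCNQ2/3, loaded 45 min with red membrane-potential dye in ES buffer pH 7.4 (1 mM KCl), compound 30 min at room temperature. Fluorescence (525/560 nm) read before (F1) and at peak after KCl to 92 mM final (F2); agonism from F2/F1 change, EC50 fitted.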

A word on the EC50: it is the midpoint of the concentration-response curve. Read a high EC50 as a need for much substance. `CC(C)(C)C(=O)CNC(=O)c1cccnc1SCCCc1ccc(F)cc1` [compound 125, N-(3,3-Dimethyl-2-oxo-butyl)-2-[3-(4-fluorophenyl)-propylsulfanyl]-pyridine-3-carboxylic acid amide]: the EC50 amounted to 1400 nM and the Emax is 99%.

Turning to `CC(C)(C)C(O)CNC(=O)c1cccnc1SCCCc1ccc(F)cc1` (stereo not shown) [compound 126], the EC50 came out at 627 nM and the “Fluorimetry % efficacy (retigabine 50 μM = 100%)” value (“Fluorimetry % efficacy” for short) worked out at 177%.

Turning to `O=C(NCc1cccnc1)c1cccnc1SCCCc1ccc(F)cc1` [compound 127, 2-[3-(4-Fluorophenyl)-propylsulfanyl]-N-(pyridin-3-yl-methyl)-pyridine-3-carboxylic acid amide], the EC50 amounted to 1860 nM and the Emax amounted to 147%.

Take `O=C(NCc1ccncc1)c1cccnc1SCCCc1ccc(F)cc1` [compound 128, 2-[3-(4-Fluorophenyl)-propylsulfanyl]-N-(pyridin-4-yl-methyl)-pyridine-3-carboxylic acid amide]: the EC50 stood at 1850 nM and the Emax was found to be 122%.

Consider `COC(=O)c1cccc(CNC(=O)c2cccnc2SCCCc2ccc(F)cc2)c1` [compound 129, 3-[[[2-[3-(4-Fluorophenyl)-propylsulfanyl]-pyridine-3-carbonyl]amino]-methyl]-benzoic acid methyl ester], for which the response was half-maximal at 325 nM (EC50) and the Emax worked out at 122%.

In the case of `COc1ccccc1CCCNC(=O)c1cccnc1SCCCc1ccc(F)cc1` [compound 130, 2-[3-(4-Fluorophenyl)-propylsulfanyl]-N-[3-(2-methoxyphenyl)-propyl]-pyridine-3-carboxylic acid amide], the EC50 was 465 nM and the Emax is 164%.

Consider `O=C(O)c1cccc(CNC(=O)c2cccnc2SCCCc2ccc(F)cc2)c1` [compound 131], for which the “Fluorimetry % efficacy” value is 25%.

For `CC(CCc1cccc(C(F)(F)F)c1)Sc1ncccc1C(=O)NCc1ccc(F)cc1` (stereo not shown) [compound 132, N-[(4-Fluorophenyl)-methyl]-2-[[1-methyl-3-[3-(trifluoromethyl)phenyl]-propyl]sulfanyl]-pyridine-3-carboxylic acid amide], the EC50 turned out to be 82 nM and the Emax was determined as 120%.

Regarding `O=C(NCCCn1cccn1)c1cccnc1SCCCc1ccc(F)cc1` [compound 135, 2-[3-(4-Fluorophenyl)-propylsulfanyl]-N-[3-(1H-pyrazol-1-yl)-propyl]-pyridine-3-carboxylic acid amide], the concentration giving a half-maximal response (EC50) worked out at 3140 nM and the Emax was 154%.

`O=C(NCc1ccc2ccccc2c1)c1cccnc1SCCCc1ccc(F)cc1` [compound 136, 2-[3-(4-Fluorophenyl)-propylsulfanyl]-N-(naphthalen-2-yl-methyl)-pyridine-3-carboxylic acid amide]: the Emax is 28%.

`O=C(NCc1ccc2c(c1)OCCO2)c1cccnc1SCCCc1ccc(F)cc1` [compound 137, N-(2,3-Dihydro-[1,4]benzodioxin-6-yl-methyl)-2-[3-(4-fluorophenyl)-propylsulfanyl]-pyridine-3-carboxylic acid amide]: the midpoint of the response, the EC50, lay at 366 nM and the Emax was determined as 93%.

With `O=C(NCc1cccc(N2CCOCC2)c1)c1cccnc1SCCCc1ccc(F)cc1` [compound 138, 2-[3-(4-Fluorophenyl)-propylsulfanyl]-N-[(3-morpholin-4-yl-phenyl)-methyl]-pyridine-3-carboxylic acid amide], the EC50 was 417 nM and the Emax was determined as 92%.

Consider `O=C(NCc1ccc2c(c1)OCC2)c1cccnc1SCCCc1ccc(F)cc1` [compound 139, N-(2,3-Dihydro-benzofuran-6-yl-methyl)-2-[3-(4-fluorophenyl)-propylsulfanyl]-pyridine-3-carboxylic acid amide], for which the 50% effective concentration (EC50) stood at 101 nM and the Emax worked out at 81%.

Turning to `O=C(NCc1cccc(-n2cccn2)c1)c1cccnc1SCCCc1ccc(F)cc1` [compound 140, 2-[3-(4-Fluorophenyl)-propylsulfanyl]-N-[[3-(1H-pyrazol-1-yl)-phenyl]-methyl]-pyridine-3-carboxylic acid amide], the midpoint of the response, the EC50, lay at 312 nM and the Emax stood at 88%.

Take `O=C(NCCCn1ccnn1)c1cccnc1SCCCc1ccc(F)cc1` [compound 141, 2-[3-(4-Fluorophenyl)-propylsulfanyl]-N-[3-(1H-[1,2,3]triazol-1-yl)-propyl]-pyridine-3-carboxylic acid amide]: a half-maximal response (EC50) required 12800 nM and the Emax came out at 86%.

With `O=C(NCC1C2CCC1CC2)c1cccnc1SCCCc1ccc(F)cc1` (stereo not shown) [compound 142, N-(7-Bicyclo[2.2.1]heptanyl-methyl)-2-[3-(4-fluorophenyl)-propylsulfanyl]-pyridine-3-carboxylic acid amide], the midpoint of the response, the EC50, lay at 97 nM and the Emax is 260%.

`O=C(NCc1ccccn1)c1cccnc1SCCCc1ccc(F)cc1` [compound 143]: the EC50 amounted to 1510 nM and the “Fluorimetry % efficacy” value is 175%.

As to `O=C(NCc1nccs1)c1cccnc1SCCCc1ccc(F)cc1` [compound 144, 2-[3-(4-Fluorophenyl)-propylsulfanyl]-N-(thiazol-2-yl-methyl)-pyridine-3-carboxylic acid amide], the EC50 worked out at 815 nM and the Emax came out at 215%.

Take `O=C(NCc1cncs1)c1cccnc1SCCCc1ccc(F)cc1` [compound 145, 2-[3-(4-Fluorophenyl)-propylsulfanyl]-N-(thiazol-5-yl-methyl)-pyridine-3-carboxylic acid amide]: it took 1490 nM to reach a half-maximal effect (EC50) and the Emax worked out at 174%.

Regarding `O=C(NCc1ncco1)c1cccnc1SCCCc1ccc(F)cc1` [compound 146, 2-[3-(4-Fluorophenyl)-propylsulfanyl]-N-(oxazol-2-yl-methyl)-pyridine-3-carboxylic acid amide], the EC50 was 2550 nM and the Emax is 193%.

As to `Cc1ccnc(SCCCc2ccc(F)cc2)c1C(=O)NCc1cccs1` [compound 147], the “Fluorimetry % efficacy” value is given as 34%.

Turning to `Cc1ccnc(SCCCc2ccc(F)cc2)c1C(=O)NCCC(C)(C)C` [compound 148, N-(3,3-Dimethyl-butyl)-2-[3-(4-fluorophenyl)-propylsulfanyl]-4-methyl-pyridine-3-carboxylic acid amide], the midpoint of the response, the EC50, lay at 1960 nM and the Emax came out at 85%.

As for `CC(CCc1cccc(C(F)(F)F)c1)Sc1ncccc1C(=O)NCCC(C)(C)C` (stereo not shown) [compound 149, N-(3,3-Dimethyl-butyl)-2-[[1-methyl-3-[3-(trifluoromethyl)phenyl]-propyl]sulfanyl]-pyridine-3-carboxylic acid amide], the concentration giving a half-maximal response (EC50) worked out at 93 nM and the Emax stood at 181%.

With `O=C(NCc1ccc2cccnc2c1)c1cccnc1SCCCc1ccc(F)cc1` [compound 150, 2-[3-(4-Fluorophenyl)-propylsulfanyl]-N-(quinolin-7-yl-methyl)-pyridine-3-carboxylic acid amide], it took 1490 nM to reach a half-maximal effect (EC50) and the Emax is 96%.

Consider `O=C(NCc1cccc(-c2ccccn2)c1)c1cccnc1SCCCc1ccc(F)cc1` [compound 151, 2-[3-(4-Fluorophenyl)-propylsulfanyl]-N-[(3-pyridin-2-yl-phenyl)-methyl]-pyridine-3-carboxylic acid amide], for which the midpoint of the response, the EC50, lay at 667 nM and the Emax worked out at 95%.

On to `O=C(NCc1cccc(-c2cccnc2)c1)c1cccnc1SCCCc1ccc(F)cc1` [compound 152, 2-[3-(4-Fluorophenyl)-propylsulfanyl]-N-[(3-pyridin-3-yl-phenyl)-methyl]-pyridine-3-carboxylic acid amide], for which the EC50 was determined as 1290 nM and the Emax turned out to be 89%.

For the compound `C[C@H](CCc1ccccc1)Sc1ncccc1C(=O)NCCC(C)(C)C` [compound 153, N-(3,3-Dimethyl-butyl)-2-[[(1R)-1-methyl-3-phenyl-propyl]sulfanyl]-pyridine-3-carboxylic acid amide], the EC50 turned out to be 1250 nM and the Emax turned out to be 155%.

For `C[C@@H](CCc1ccccc1)Sc1ncccc1C(=O)NCCC(C)(C)C` [compound 154, N-(3,3-Dimethyl-butyl)-2-[[(1S)-1-methyl-3-phenyl-propyl]sulfanyl]-pyridine-3-carboxylic acid amide], the EC50 amounted to 237 nM and the Emax was found to be 207%.

For the compound `CC(C)(C)CCNC(=O)c1cccnc1SC1CCCC1Cc1ccccc1` (stereo not shown) [compound 155, 2-[(2-Benzyl-cyclopentyl)sulfanyl]-N-(3,3-dimethyl-butyl)-pyridine-3-carboxylic acid amide], the EC50 amounted to 657 nM and the Emax came out at 159%.

As for `O=C(NCC1C2CCC1CC2)c1cccnc1SCCCc1cccc(C(F)(F)F)c1` (stereo not shown) [compound 156, N-(7-Bicyclo[2.2.1]heptanyl-methyl)-2-[3-[3-(trifluoromethyl)phenyl]-propylsulfanyl]-pyridine-3-carboxylic acid amide], a half-maximal effect (EC50) was put at 110 nM and the Emax is 249%.

For `O=C(NCCCn1cncn1)c1cccnc1SCCCc1ccc(F)cc1` [compound 157, 2-[3-(4-Fluorophenyl)-propylsulfanyl]-N-[3-(1H-[1,2,4]triazol-1-yl)-propyl]-pyridine-3-carboxylic acid amide], the Emax turned out to be 88%.

With `O=C(NCc1nnco1)c1cccnc1SCCCc1ccc(F)cc1` [compound 158, 2-[3-(4-Fluorophenyl)-propylsulfanyl]-N-([1,3,4]oxadiazol-2-yl-methyl)-pyridine-3-carboxylic acid amide], the Emax worked out at 30%.

Take `O=C(NCc1cccc(-c2ccncc2)c1)c1cccnc1SCCCc1ccc(F)cc1` [compound 159, 2-[3-(4-Fluorophenyl)-propylsulfanyl]-N-[(3-pyridin-4-yl-phenyl)-methyl]-pyridine-3-carboxylic acid amide]: a half-maximal response (EC50) required 670 nM and the Emax was found to be 113%.
